Measurements from patent US8153631B2, “Triazole compounds and uses related thereto” (Amgen Inc., priority 2003, dated 2012).
Counter-ions that a name gives are not always drawn.

Biological target: T1, human HSD1 (recombinant HSD1) (Homo sapiens, UniProt P28845)
T1 construct: made in house
Experiment: In vitro HSD1 activity inhibitory action, SPA of cortisone to cortisol conversion
Assay type: biochemical
Conditions: recombinant human HSD1 0.1 μg/ml, 500 μM NADPH, 16 nM 3H cortisone, room temperature 90 min, read-out: hHSD1 IC50
Protocol: In Vitro HSD1 (Hydroxysteroid Dehydrogenase 1) Activity Inhibitory Action
The HSD1 inhibitory activity was examined by quantitative determination by an SPA (scintillation proximity assay) system of the suppressive action on the conversion from cortisone to cortisol using human HSD1 (hereinafter recombinant HSD1) expressed using a baculo-virus system as an enzyme source. For the reaction, a reagent was added to a 96 well plate (96 well Opti-plates™-96 (Packard)) to the following final concentration and a volume of 100 μl was reacted at room temperature for 90 min. The reaction solution used was 0.1 μg/ml recombinant HSD1, 500 μM NADPH, 16 nM ^3H cortisone (Amersham Biosciences, 1.78 Tbq/mol) dissolved in 0.1% BSA (Sigma)-containing PBS and the test drug was 2 μl of a compound solution (dissolved in DMSO). After 90 min, the reaction was stopped by adding PBS (40 μl, containing 0.1% BSA (Sigma)) containing 0.08 μg of anti-cortisol mouse monoclonal antibody (East Coast Biologics), 365 μg SPA PVT mouse antibody-binding beads (Amersham Biosciences) and 175 μM carbenoxolone (Sigma) to the reaction solution. After the completion of the reaction, the plate was incubated overnight at room temperature and the radioactivity was measured by Topcount (Packard). For control, the value (0% inhibition) of the well containing 2 μl of DMSO instead of the test drug was used, and for positive control, the value (100% inhibition) of the well containing carbenoxolone instead of the test drug at the final concentration of 50 μM was used. The inhibition (%) of the test drug was calculated by ((value of control−value of test drug)/(value of control−value of positive control))×100 (%). The IC50 value was analyzed using a computer-based curve fitting soft.

T1 sequence (P28845 whole entry): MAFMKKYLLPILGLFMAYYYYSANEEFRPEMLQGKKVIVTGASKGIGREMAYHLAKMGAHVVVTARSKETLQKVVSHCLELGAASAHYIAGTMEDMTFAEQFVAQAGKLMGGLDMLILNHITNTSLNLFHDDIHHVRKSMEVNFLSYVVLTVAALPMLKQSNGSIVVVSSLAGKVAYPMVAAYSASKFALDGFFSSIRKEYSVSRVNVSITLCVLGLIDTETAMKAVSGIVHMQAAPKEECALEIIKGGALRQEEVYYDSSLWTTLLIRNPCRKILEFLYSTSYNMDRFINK

Row | SMILES | IC50 [nM]
1 | Cn1c(C2CCN(c3c(Cl)cncc3Cl)CC2)nnc1C1(c2ccc(Cl)cc2)CC1 [Ex. 1-1, 3′,5′-dichloro-4-(5-(1-(4-chlorophenyl)cyclopropyl)-4-methyl-4H-[1,2,4]triazol-3-yl)-3,4,5,6-tetrahydro-2H-[1,4′]bipyridyl hydrochloride] | 10 to 1000
2 | CN(C)C(=O)Nc1ccc(-c2nnc(C3(c4ccccc4)CC3)n2C)c(Cl)c1 [Ex. 1-33] | 10 to 1000
3 | Cn1c(C2(c3ccccc3)CC2)nnc1[C@H]1CC[C@H](CO)CC1 [Ex. 1-105] | < 10
4 | CN(O)C(=O)Nc1ccc(-c2nnc(C3(c4ccccc4)CC3)n2C)c(Cl)c1 [Ex. 1-137] | < 10
5 | Cn1c(-c2ccc(O)cc2Cl)nnc1C1(c2ccccc2)CC1 [Ex. 1-68] | < 10
6 | CCCC(=O)Nc1ccc(-c2nnc(C3(c4ccccc4)CC3)n2C)c(Cl)c1 [Ex. 1-28] | < 10
7 | Cn1c(-c2ccc(Cl)cc2Cl)nnc1C1(c2ccc(F)cc2)CC1 [Ex. 1-107] | < 10
8 | Cn1c(-c2ccc(C(=O)NCCN3CCOCC3)cc2Cl)nnc1C1(c2ccccc2)CC1 [Ex. 1-88] | 10 to 1000
9 | Cn1c(-c2ccc(N3CCOCC3)cc2Cl)nnc1C1(c2ccc(F)cc2)CC1 [Ex. 1-55] | < 10
10 | Cn1c(-c2ccc(NC(=O)N3CCC(O)CC3)cc2Cl)nnc1C1(c2ccccc2)CC1 [Ex. 1-42] | 10 to 1000
11 | CC(=O)Nc1ccc(-c2nnc(C3(c4ccc(F)cc4)CC3)n2C)c(Cl)c1 [Ex. 1-47] | < 10
12 | Cn1c(-c2ccc(F)cc2Cl)nnc1C1(c2ccccc2)CC1 [Ex. 1-92] | < 10
13 | CC(C)n1c(-c2cccc(N3CCOC3=O)c2)nnc1C1(c2ccc(F)cc2)CC1 [Ex. 1-154] | < 10
14 | COc1cc(Cl)ccc1-c1nnc(C2(c3ccccc3)CC2)n1C [Ex. 1-91] | < 10
15 | CNC(=O)CCn1c(C2CCN(c3c(Cl)cncc3Cl)CC2)nnc1C1(c2ccccc2)CC1 [Ex. 1-10] | 10 to 1000
16 | COc1cc(C(N)=O)ccc1-c1nnc(C2(c3ccccc3)CC2)n1C [Ex. 1-125] | < 10
17 | Cn1c(-c2ccc(OCC(N)=O)cc2Cl)nnc1C1(c2ccccc2)CC1 [Ex. 1-69] | < 10
18 | CC(=O)N1CCN(c2ccc(-c3nnc(C4(c5ccccc5)CC4)n3C)c(Cl)c2)CC1 [Ex. 1-49] | < 10
19 | CC(C)n1c(-c2cccc(C(N)=O)c2)nnc1C1(c2ccc(F)cc2)CC1 [Ex. 1-161] | < 10
20 | CN(C)C(=O)c1ccc(-c2nnc(C3(c4ccccc4)CC3)n2C)c(Cl)c1 [Ex. 1-77] | 10 to 1000
21 | Cn1c(-c2ccc(N3CCCCC3)cc2Cl)nnc1C1(c2ccccc2)CC1 [Ex. 1-53] | < 10
22 | Cn1c(-c2ccc(NS(C)(=O)=O)cc2Cl)nnc1C1(c2ccccc2)CC1 [Ex. 1-22] | < 10
23 | Cn1c(C2CCN(c3ncccc3Cl)CC2)nnc1C1(c2ccccc2)CC1 [Ex. 1-14] | < 10

Row | SMILES | IC50 [nM]
24 | Cn1c(-c2ccc(NS(N)(=O)=O)cc2Cl)nnc1C1(c2ccccc2)CC1 [Ex. 1-34] | < 10
25 | COC1CCN(C(=O)Nc2ccc(-c3nnc(C4(c5ccccc5)CC4)n3C)c(Cl)c2)CC1 [Ex. 1-40] | 10 to 1000
26 | Cn1c(-c2ccccc2Cl)nnc1C1(c2ccccc2)CC1 [Ex. 1-101] | < 10
27 | OCCn1c(C2CCN(c3c(Cl)cncc3Cl)CC2)nnc1C1(c2ccccc2)CC1 [Ex. 1-5] | < 10
28 | COC(=O)Nc1ccc(Cl)c(-c2nnc(C3(c4ccc(F)cc4)CC3)n2C)c1 [Ex. 1-150] | < 10
29 | Cn1c(-c2ccc(N3CCCC(O)C3)cc2Cl)nnc1C1(c2ccccc2)CC1 (stereo not drawn) [Ex. 1-66] | < 10
30 | CC(C)C(=O)Nc1ccc(-c2nnc(C3(c4ccccc4)CC3)n2C)c(Cl)c1 [Ex. 1-29] | < 10
31 | Cn1c(-c2ccc(C(=O)NCC(N)=O)cc2Cl)nnc1C1(c2ccccc2)CC1 [Ex. 1-82] | < 10
32 | Cn1c(-c2ccc(N3CCC(O)C3)cc2Cl)nnc1C1(c2ccccc2)CC1 (stereo not drawn) [Ex. 1-131] | < 10
33 | Cn1c(-c2ccc(N3CCC(N)CC3)cc2Cl)nnc1C1(c2ccccc2)CC1 [Ex. 1-64] | 10 to 1000
34 | Cn1c(-c2ccc(N3CCC(C(N)=O)CC3)cc2Cl)nnc1C1(c2ccccc2)CC1 [Ex. 1-109] | < 10
35 | Cn1c(-c2ccc(OCC(F)(F)F)cc2Cl)nnc1C1(c2ccccc2)CC1 [Ex. 1-129] | < 10
36 | Cn1c(-c2ccc(N3CCC(NC(=O)OC(C)(C)C)CC3)cc2Cl)nnc1C1(c2ccccc2)CC1 [Ex. 1-63] | < 10
37 | Cn1c(-c2ccc(N)cc2Cl)nnc1C1(c2ccccc2)CC1 [Ex. 1-26] | < 10
38 | Cn1c(C2CCN(c3ncccc3Cl)CC2)nnc1C1(c2ccccc2)CCCC1 [Ex. 1-2] | < 10
39 | CC(C)n1c(-c2cccc(C(N)=O)c2)nnc1C1(c2ccccc2)CC1 [Ex. 1-160] | < 10
40 | CC(=O)Nc1ccc(-c2nnc(C3(c4ccccc4)CC3)n2C)c(Cl)c1 [Ex. 1-21] | < 10
41 | CNC(=O)c1ccc(-c2nnc(C3(c4ccccc4)CC3)n2C)c(Cl)c1 [Ex. 1-75] | < 10
42 | COCC(=O)Nc1ccc(-c2nnc(C3(c4ccccc4)CC3)n2C)c(Cl)c1 [Ex. 1-24] | < 10
43 | CN(C)CCNC(=O)c1ccc(-c2nnc(C3(c4ccccc4)CC3)n2C)c(Cl)c1 [Ex. 1-87] | 10 to 1000
44 | Cn1c(-c2ccc(NC(=O)CN3CCC(O)CC3)cc2Cl)nnc1C1(c2ccccc2)CC1 [Ex. 1-43] | 10 to 1000
45 | CN(C)C(=O)C1CCN(c2ccc(-c3nnc(C4(c5ccccc5)CC4)n3C)c(Cl)c2)CC1 [Ex. 1-115] | < 10
46 | Cn1c(C2(c3ccccc3)CC2)nnc1C1(c2ccccc2)CC1 [Ex. 1-121] | < 10

The next lines start with the values.

Row | IC50 [nM] | SMILES
47 | 10 to 1000 | COC1(c2ccccc2)CCN(c2nnc(C3(c4ccccc4)CC3)n2C)CC1 [Ex. 2-42]
48 | < 10 | Cn1c(N2CCC(CCO)CC2)nnc1C1(c2ccccc2)CC1 [Ex. 2-61]
49 | < 10 | CC(C)C1CCN(c2nnc(C3(c4ccccc4)CC3)n2C)CC1 [Ex. 2-65]
50 | < 10 | Cn1c(N2CCC(C)(C)CC2)nnc1C1(c2ccc(F)cc2)CC1 [Ex. 2-60]
51 | 10 to 1000 | COC1CCN(c2nnc(C3(c4ccccc4)CC3)n2C)CC1 [Ex. 2-43]
52 | < 10 | Cn1c(N2CCCc3ccccc32)nnc1C1(c2ccccc2)CC1 [Ex. 2-25]
53 | < 10 | Clc1cnc(OC2CCN(c3nnc(C4(c5ccccc5)CC4)n3CC3CC3)CC2)c(Cl)c1 [Ex. 2-76]
54 | 10 to 1000 | CC(=O)N(C)C1CCN(c2nnc(C3(c4ccccc4)CC3)n2C)CC1 [Ex. 2-13]
55 | 10 to 1000 | Cc1ccc(C2(c3nnc(N4CCC(Oc5ncc(Cl)cc5Cl)CC4)n3C)CC2)cc1 [Ex. 2-82]
56 | < 10 | CC1CCN(c2nnc(C3(c4ccccc4)CC3)n2C)CC1 [Ex. 2-53]
57 | < 10 | Cn1c(N2CCC(O)CC2)nnc1C1(c2ccccc2)CC1 [Ex. 2-32]
58 | 10 to 1000 | CN(C)C(=O)c1cccc(OC2CCN(c3nnc(C4(c5ccccc5)CC4)n3C)CC2)c1 [Ex. 2-57]
59 | 10 to 1000 | CN(C)C(=O)C1CCN(c2nnc(C3(c4ccccc4)CC3)n2C)CC1 [Ex. 2-19]
60 | 10 to 1000 | COC(=O)c1cc(OC2CCN(c3nnc(C4(c5ccccc5)CC4)n3C)CC2)ccc1Cl [Ex. 2-62]
61 | < 10 | Cn1c(N2CCC(C)(C)CC2)nnc1C1(c2ccccc2)CC1 [Ex. 2-58]
62 | 10 to 1000 | Cn1c(N2CC[S+]([O-])CC2)nnc1C1(c2ccccc2)CC1 [Ex. 2-23]

Row | IC50 [nM] | SMILES
63 | 10 to 1000 | Cn1c(N2CCC(Nc3ncc(Cl)cc3Cl)CC2)nnc1C1(c2ccccc2)CC1 [Ex. 2-33]
64 | < 10 | Cn1c(N2CCc3ccccc3C2)nnc1C1(c2ccccc2)CC1 [Ex. 2-24]
65 | < 10 | CN(c1ccccc1)c1nnc(C2(c3ccccc3)CC2)n1C [Ex. 2-93]
66 | < 10 | Cn1c(N2CCC(Oc3ccc(Cl)cc3)CC2)nnc1C1(c2ccccc2)CC1 [Ex. 2-35]
67 | < 10 | Cn1c(N2CCC(Oc3ccc(Cl)cn3)CC2)nnc1C1(c2ccccc2)CC1 [Ex. 2-39]
68 | 10 to 1000 | Cn1c(N2CCC(NC(=O)c3ccc(Cl)cc3Cl)CC2)nnc1C1(c2ccccc2)CC1 [Ex. 2-10]
69 | 10 to 1000 | Cn1c(N2CCC(Oc3cccc(C(=O)O)c3)CC2)nnc1C1(c2ccccc2)CC1 [Ex. 2-45]
70 | 10 to 1000 | COC(=O)C1CCN(c2nnc(C3(c4ccccc4)CC3)n2C)CC1 [Ex. 2-4]
71 | 10 to 1000 | Cn1c(N2CCC(Oc3ccccc3C(=O)O)CC2)nnc1C1(c2ccccc2)CC1 [Ex. 2-46]
72 | < 10 | Cn1c(N2CCC(CO)CC2)nnc1C1(c2ccccc2)CC1 [Ex. 2-6]
73 | 10 to 1000 | CC(=O)N1CCN(c2nnc(C3(c4ccccc4)CC3)n2C)CC1 [Ex. 2-27]
74 | 10 to 1000 | Cn1c(N2CCC(Oc3c(Cl)cncc3Cl)CC2)nnc1C1(c2ccccc2)CC1 [Ex. 2-86]
75 | < 10 | Cn1c(N2CCC(C(N)=O)CC2)nnc1C1(c2ccccc2)CC1 [Ex. 2-16]
76 | 10 to 1000 | Cn1c(N2CCC(Cc3ccccc3)CC2)nnc1C1(c2ccccc2)CC1 [Ex. 2-34]
77 | < 10 | CN(c1ccccc1)c1nnc(C2(c3ccc(F)cc3)CC2)n1C [Ex. 2-96]
78 | 10 to 1000 | Cn1c(N2CCC(Oc3ccc(Cl)c(C(N)=O)c3)CC2)nnc1C1(c2ccccc2)CC1 [Ex. 2-66]
